Test results reported in PMC7933930, “Development of a small molecule that corrects misfolding and increases secretion of Z α1‐antitrypsin” (EMBO Molecular Medicine, 2021).

Experiments:
[1] = tested on: Z α1‐antitrypsin secretion in CHO‐TET‐ON‐Z‐A1AT cells; assay: Secretion of Z α1‐antitrypsin from CHO‐TET‐ON‐Z‐A1AT cells (TR‐FRET); format: cell-based; conditions: n = 74, read-out: mean pEC50, secretion of Z α1‐antitrypsin (converted)
[2] = tested on: Z α1‐antitrypsin polymers in CHO‐TET‐ON‐Z‐A1AT cells; assay: Intracellular Z α1‐antitrypsin polymer formation in CHO‐TET‐ON‐Z‐A1AT cells (2C1 staining); format: cell-based
Protocol: The ability of GSK716 to block Z α1‐antitrypsin polymerisation in the ER during folding was assessed by adding GSK716 to CHO‐TET‐ON‐Z‐A1AT cells (Ordóñez et al, 2013) with simultaneous induction of Z α1‐antitrypsin expression using doxycycline. […] Similar potency between the effects on secretion and polymerisation was observed throughout members of the lead series supporting the hypothesis that these effects are caused by the same pharmacological mode of action.
Figure 2 GSK716 inhibits polymerisation of Z α1‐antitrypsin in cell models of disease • A GSK716 was added to CHO‐TET‐ON‐Z‐A1AT cells (Ordóñez et al, 2013) with simultaneous induction of Z α1‐antitrypsin expression using doxycycline, and polymer load was quantified with the 2C1 monoclonal antibody that is specific to pathological polymers of α1‐antitrypsin (Miranda et al, 2010). […] For every time point, NP‐40‐soluble and NP‐40‐insoluble fractions were separated and immunoprecipitated with the 2C1 mAb and resolved by 4–12% w/v SDS–PAGE and α1‐antitrypsin detected by immunoblotting. […] Cell viability was measured by Cell Counting Kit‐8. […] Samples were resolved by 4–12% w/v acrylamide SDS–PAGE and detected by autoradiography. • H The graphs show the effect of GSK716 on intracellular and extracellular Z α1‐antitrypsin (mean ± SEM, n = 2). […]

[3] = biological target: Norepinephrine transporter (Homo sapiens, UniProt P23975); assay: Off‐target panel: Norepinephrine transporter; format: cell-based
Chain of Norepinephrine transporter (P23975 whole entry, species assumed): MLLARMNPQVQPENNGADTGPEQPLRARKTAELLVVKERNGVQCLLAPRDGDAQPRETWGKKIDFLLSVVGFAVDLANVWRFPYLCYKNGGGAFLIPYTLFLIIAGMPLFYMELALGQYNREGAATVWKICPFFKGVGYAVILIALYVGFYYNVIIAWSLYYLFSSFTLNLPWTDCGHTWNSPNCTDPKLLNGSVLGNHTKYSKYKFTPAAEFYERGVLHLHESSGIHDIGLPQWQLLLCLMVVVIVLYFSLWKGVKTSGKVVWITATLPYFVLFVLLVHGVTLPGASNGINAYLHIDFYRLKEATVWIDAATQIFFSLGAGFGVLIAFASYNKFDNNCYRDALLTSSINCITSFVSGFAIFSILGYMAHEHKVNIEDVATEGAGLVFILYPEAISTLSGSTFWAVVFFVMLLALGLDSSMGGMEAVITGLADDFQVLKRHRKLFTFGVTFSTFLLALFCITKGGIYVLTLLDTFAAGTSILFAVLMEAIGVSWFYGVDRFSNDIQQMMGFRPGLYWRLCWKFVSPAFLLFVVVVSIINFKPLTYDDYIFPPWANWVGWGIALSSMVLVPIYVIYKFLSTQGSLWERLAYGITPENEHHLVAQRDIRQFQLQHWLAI
Protocol: (§1) GSK716 selectivity and PK properties were profiled in order to investigate the suitability of GSK716 for progression into in vivo studies and the potential for taking it forward as a clinical candidate for testing in humans. Since GSK716 results in loss of inhibitory activity of α1‐antitrypsin, the effect of the compound was assessed on other closely related serpins. […] Furthermore, there were no off‐target effects in a panel of assays considered predictive of known safety liabilities that precluded further development of GSK716 (Table EV1).

[4] = biological target: NMDA (NR2B) (Homo sapiens, UniProt Q05586+Q13224); assay: Off‐target panel: NMDA (NR2B); format: cell-based
Chain of NMDA (NR2B) (Q13224 27-1484, species assumed, other chains not shown): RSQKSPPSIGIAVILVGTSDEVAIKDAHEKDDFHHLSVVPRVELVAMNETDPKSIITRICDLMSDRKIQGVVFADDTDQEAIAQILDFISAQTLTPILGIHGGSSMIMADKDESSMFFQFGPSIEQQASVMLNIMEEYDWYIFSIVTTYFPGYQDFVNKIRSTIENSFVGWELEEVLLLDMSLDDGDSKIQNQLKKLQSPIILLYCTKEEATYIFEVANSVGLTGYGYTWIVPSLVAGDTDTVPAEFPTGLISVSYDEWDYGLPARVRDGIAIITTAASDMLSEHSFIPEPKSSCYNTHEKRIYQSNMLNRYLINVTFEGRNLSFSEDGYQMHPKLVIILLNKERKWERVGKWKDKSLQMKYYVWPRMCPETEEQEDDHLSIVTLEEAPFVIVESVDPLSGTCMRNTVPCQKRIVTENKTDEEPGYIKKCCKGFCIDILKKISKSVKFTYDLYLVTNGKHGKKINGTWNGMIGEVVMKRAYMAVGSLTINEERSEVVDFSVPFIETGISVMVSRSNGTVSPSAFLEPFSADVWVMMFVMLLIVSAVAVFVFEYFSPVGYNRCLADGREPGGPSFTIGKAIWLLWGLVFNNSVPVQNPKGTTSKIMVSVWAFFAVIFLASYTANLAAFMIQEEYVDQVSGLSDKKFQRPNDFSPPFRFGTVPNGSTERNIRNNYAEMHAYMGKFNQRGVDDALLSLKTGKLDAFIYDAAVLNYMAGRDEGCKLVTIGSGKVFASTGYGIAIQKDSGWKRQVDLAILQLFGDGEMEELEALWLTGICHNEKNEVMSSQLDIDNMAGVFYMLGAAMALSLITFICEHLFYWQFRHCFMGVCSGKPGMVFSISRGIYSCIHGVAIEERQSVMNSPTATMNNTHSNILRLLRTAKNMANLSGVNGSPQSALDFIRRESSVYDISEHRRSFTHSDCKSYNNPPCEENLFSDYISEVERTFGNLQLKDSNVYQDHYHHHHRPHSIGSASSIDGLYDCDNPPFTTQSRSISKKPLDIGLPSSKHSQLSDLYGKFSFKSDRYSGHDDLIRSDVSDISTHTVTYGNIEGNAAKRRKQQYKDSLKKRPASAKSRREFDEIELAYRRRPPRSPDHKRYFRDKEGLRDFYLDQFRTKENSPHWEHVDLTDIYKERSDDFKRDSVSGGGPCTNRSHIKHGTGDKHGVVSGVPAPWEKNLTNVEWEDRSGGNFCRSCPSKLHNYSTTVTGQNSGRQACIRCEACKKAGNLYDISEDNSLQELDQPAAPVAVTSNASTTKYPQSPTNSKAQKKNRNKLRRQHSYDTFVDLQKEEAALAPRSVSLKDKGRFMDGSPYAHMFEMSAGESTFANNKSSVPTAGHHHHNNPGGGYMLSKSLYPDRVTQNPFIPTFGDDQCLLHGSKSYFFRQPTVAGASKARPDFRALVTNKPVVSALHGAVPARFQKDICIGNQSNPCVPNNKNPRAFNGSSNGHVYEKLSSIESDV
Protocol: as §1

[5] = biological target: α1 nicotinic AChR (Homo sapiens, UniProt P02708); assay: Off‐target panel: α1 nicotinic AChR; format: cell-based
Chain of α1 nicotinic AChR (P02708 21-457): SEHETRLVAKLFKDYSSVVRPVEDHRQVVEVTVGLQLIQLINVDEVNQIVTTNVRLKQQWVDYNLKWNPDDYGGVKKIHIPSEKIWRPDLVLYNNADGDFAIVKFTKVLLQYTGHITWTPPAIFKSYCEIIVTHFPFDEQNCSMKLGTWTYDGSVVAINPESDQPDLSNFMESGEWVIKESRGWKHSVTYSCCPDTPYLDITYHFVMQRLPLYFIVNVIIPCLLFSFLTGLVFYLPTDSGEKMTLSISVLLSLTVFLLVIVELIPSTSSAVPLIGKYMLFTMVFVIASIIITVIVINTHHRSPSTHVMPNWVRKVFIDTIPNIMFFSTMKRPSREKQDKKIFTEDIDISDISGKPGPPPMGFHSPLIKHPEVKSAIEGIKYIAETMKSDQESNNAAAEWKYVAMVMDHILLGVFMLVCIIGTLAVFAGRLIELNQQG
Chain of α1 nicotinic AChR (P11230 24-501 partner): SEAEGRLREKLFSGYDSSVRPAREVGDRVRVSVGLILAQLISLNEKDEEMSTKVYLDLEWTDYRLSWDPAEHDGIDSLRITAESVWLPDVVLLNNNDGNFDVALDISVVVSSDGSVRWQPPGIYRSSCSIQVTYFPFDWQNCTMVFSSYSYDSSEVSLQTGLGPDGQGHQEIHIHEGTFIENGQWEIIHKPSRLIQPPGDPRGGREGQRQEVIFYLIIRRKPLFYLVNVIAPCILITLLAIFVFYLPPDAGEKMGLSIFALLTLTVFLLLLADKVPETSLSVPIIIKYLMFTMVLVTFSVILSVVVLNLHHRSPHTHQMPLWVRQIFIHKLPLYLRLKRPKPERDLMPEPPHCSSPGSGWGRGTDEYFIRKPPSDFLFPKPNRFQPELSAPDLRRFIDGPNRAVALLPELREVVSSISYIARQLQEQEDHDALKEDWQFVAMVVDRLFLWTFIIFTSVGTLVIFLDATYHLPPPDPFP
Chain of α1 nicotinic AChR (Q07001 22-517 partner): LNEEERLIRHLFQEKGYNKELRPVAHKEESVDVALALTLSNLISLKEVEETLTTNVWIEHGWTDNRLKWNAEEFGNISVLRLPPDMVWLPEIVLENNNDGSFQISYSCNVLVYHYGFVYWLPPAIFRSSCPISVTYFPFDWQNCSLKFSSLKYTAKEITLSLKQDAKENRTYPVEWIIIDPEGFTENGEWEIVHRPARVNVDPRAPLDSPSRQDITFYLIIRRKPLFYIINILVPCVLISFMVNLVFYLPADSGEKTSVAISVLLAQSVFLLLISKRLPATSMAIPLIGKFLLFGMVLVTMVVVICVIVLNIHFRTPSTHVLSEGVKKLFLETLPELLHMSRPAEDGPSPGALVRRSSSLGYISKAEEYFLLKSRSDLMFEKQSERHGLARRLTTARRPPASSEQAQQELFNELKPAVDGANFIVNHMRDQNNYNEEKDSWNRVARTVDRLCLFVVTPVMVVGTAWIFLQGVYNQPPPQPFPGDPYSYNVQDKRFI
Protocol: as §1

[6] = biological target: T1, Serotonin 5HT3 (Homo sapiens, UniProt P46098); assay: Off‐target panel: Serotonin 5HT3; format: cell-based
T1 sequence (P46098 24-478): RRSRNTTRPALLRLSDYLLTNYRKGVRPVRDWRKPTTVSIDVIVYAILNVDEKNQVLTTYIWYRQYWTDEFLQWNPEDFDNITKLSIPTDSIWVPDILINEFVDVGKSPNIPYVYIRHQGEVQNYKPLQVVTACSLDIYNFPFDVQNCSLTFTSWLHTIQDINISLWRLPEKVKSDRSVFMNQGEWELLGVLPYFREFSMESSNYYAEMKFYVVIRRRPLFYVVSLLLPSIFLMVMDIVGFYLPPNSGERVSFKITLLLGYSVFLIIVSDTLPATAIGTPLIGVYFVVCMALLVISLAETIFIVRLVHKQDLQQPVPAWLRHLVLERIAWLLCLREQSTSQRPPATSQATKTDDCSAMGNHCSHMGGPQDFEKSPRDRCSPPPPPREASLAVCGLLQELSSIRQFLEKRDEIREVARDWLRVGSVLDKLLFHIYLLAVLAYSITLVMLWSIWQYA
Protocol: as §1

[7] = biological target: Z α1‐antitrypsin (Homo sapiens, UniProt P01009, E366K); assay: Rapid refolding by snap dilution, non‐denaturing PAGE; format: biochemical; parameters: purified from the plasma of Z α1‐antitrypsin homozygotes; from tissue; host or cells: human plasma of Z α1-antitrypsin homozygotes; conditions: snap dilution from denaturant
Chain of Z α1‐antitrypsin (P01009 25-418 E366K): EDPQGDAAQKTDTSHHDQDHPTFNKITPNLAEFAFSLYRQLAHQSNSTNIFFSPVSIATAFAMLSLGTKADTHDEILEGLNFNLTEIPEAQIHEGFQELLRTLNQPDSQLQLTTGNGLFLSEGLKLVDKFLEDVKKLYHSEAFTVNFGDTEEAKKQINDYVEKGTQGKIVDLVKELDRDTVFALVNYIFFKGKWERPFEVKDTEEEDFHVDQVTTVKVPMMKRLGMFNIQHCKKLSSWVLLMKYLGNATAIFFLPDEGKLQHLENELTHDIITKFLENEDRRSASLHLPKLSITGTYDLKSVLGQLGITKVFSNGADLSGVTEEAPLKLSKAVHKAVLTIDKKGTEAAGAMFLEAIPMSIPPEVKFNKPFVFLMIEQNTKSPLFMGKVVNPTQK

For `CCC[C@@H](NC(=O)c1cccc2c1CC(=O)N2)[C@@H](O)c1cccc(F)c1C` [GSK716], the EC50 [1] was 0.631 µM, the “intracellular formation of Z α1‐antitrypsin polymers in comparison with controls” value [2] was “completely blocked” and the IC50 ([2]; doxycycline induction, n = 71, read-out: mean pIC50, intracellular formation of Z α1‐antitrypsin polymers (converted)) was 0.501 µM. It also gave an IC50 [3] greater than 100 µM, an IC50 [4] greater than 50.1 µM and an EC50 [5] greater than 50.1 µM. The IC50 [5] was 31.6 µM, the EC50 [6] was greater than 50.1 µM and the IC50 [6] was 31.6 µM. The “misfolded by‐product of M* on refolding of the Z variant” value [7] was “corrected at stoichiometric concentrations and above”.
